Literature values in patent US8198478B2 (Ajinomoto Co., Inc., priority 2007, dated 2012).

Conditions: literature value (Kagaku Binran, 1993)

SMILES: N[C@@H](CCC(=O)O)C(=O)O [glutamic acid]
- hydrogen ion dissociation constant pk1: 2.19
- hydrogen ion dissociation constant pk2: 4.25
- hydrogen ion dissociation constant pk3: 9.67
